Measured values reported in article PMC4700511 (Biochemistry, 2015).
≈ marks a conversion by molar mass, not a printed value.

What was measured:
[1] = test system: O=C(Cc1cccs1)N[C@@H]1C(=O)N2C(C(=O)O)=C(/C=C/c3ccc([N+](=O)[O-])cc3[N+](=O)[O-])CS[C@H]12; experiment: purified protein, by the assay type; details: other: VIM-2, substrate hydrolysis, 10 mM HEPES pH 7.5, 25 °C
[2] = test system: C[C@@H](O)[C@H]1C(=O)N2C(C(=O)O)=C(SCCN=CN)C[C@H]12; experiment: purified protein, by the assay type; details: other: VIM-2, substrate hydrolysis, 10 mM HEPES pH 7.5, 25 °C
[3] = test system: CC(=O)OCC1=C(C(=O)O)N2C(=O)[C@@H](NC(=O)Cc3cccs3)[C@H]2SC1; experiment: purified protein, by the assay type; details: other: VIM-2, substrate hydrolysis, 10 mM HEPES pH 7.5, 25 °C
[4] = test system: E. coli DH10B pBCSK(−) producing R228K; experiment: MIC by agar dilution, E. coli DH10B pBCSK; assay type: cell-based; details: Escherichia coli
E. coli pBC SK(−) = experiment: MIC by agar dilution, E. coli DH10B with empty pBC SK; assay type: cell-based; details: Escherichia coli
VIM-2 [5] = target: T1, VIM-2 (Escherichia coli, UniProt Q5U7L7); experiment: Hydrolysis of cefepime and ceftazidime by periplasm preparations, VIM-2; assay type: biochemical, P. aeruginosa; details: VIM-2 periplasmic preparation; 400 μM ceftazidime
[6] = test system: E. coli DH10B pBCSK(−) producing R228Q; experiment: MIC by agar dilution, E. coli DH10B pBCSK; assay type: cell-based; details: Escherichia coli
[7] = test system: E. coli DH10B pBCSK(−) producing VIM-2 (228R); experiment: MIC by agar dilution, E. coli DH10B pBCSK; assay type: cell-based; details: Escherichia coli
[8] = test system: E. coli DH10B pBCSK(−) producing VIM-24 (R228L); experiment: MIC by agar dilution, E. coli DH10B pBCSK; assay type: cell-based; details: Escherichia coli
[9] = test system: E. coli DH10B pBCSK(−) producing R228P; experiment: MIC by agar dilution, E. coli DH10B pBCSK; assay type: cell-based; details: Escherichia coli
[10] = test system: E. coli DH10B pBCSK(−) producing R228M; experiment: MIC by agar dilution, E. coli DH10B pBCSK; assay type: cell-based; details: Escherichia coli
[11] = test system: E. coli DH10B pBCSK(−) producing R228X (other variants); experiment: MIC by agar dilution, E. coli DH10B pBCSK; assay type: cell-based; details: Escherichia coli, R228X: range of MIC values of the other variants; MHA
[12] = test system: E. coli DH10B pBCSK(−) producing R228Y; experiment: MIC by agar dilution, E. coli DH10B pBCSK; assay type: cell-based; details: Escherichia coli
VIM-24 [13] = assay type: biochemical, Klebsiella pneumoniae; details: VIM-24 (R228L) vs VIM-2
VIM-24 [14] = target: T2, VIM-24 (Escherichia coli, UniProt Q5U7L7, R205L); experiment: Hydrolysis of cefepime and ceftazidime by periplasm preparations, VIM-24; assay type: biochemical, Klebsiella pneumoniae; details: VIM-24 periplasmic preparation; 400 μM ceftazidime
VIM-24 [15] = target: T2, VIM-24; experiment: BTZ inhibition kinetics of nitrocefin hydrolysis by VIM-24; assay type: biochemical, Klebsiella pneumoniae
VIM-2 [16] = target: T1, VIM-2; experiment: BTZ inhibition kinetics of nitrocefin hydrolysis by VIM-2; assay type: biochemical, P. aeruginosa
[17] = overall dissociation constant from vs, slow binding model
[18] = rate constant for formation of E*I

Compound	MIC ([4]; MHA) [µg/mL]	MIC (E. coli pBC SK(−); MHA) [µg/mL]	MIC ([6]; MHA) [µg/mL]	MIC ([7]; MHA) [µg/mL]	MIC ([8]; MHA) [µg/mL]	MIC ([9]; MHA) [µg/mL]	MIC ([10]; MHA) [µg/mL]	MIC [11] [µg/mL]	MIC ([12]; MHA) [µg/mL]	further results
VIM-2 (Escherichia coli)	–	–	–	–	–	–	–	–	–	Km [1]: 13 ± 1 µM; kcat [1]: 430 ± 20 s⁻¹; kcat/Km [1]: 3.3e+07 M⁻¹ s⁻¹; Km [2]: 12 ± 1 µM; kcat [2]: 45 ± 1 s⁻¹; kcat/Km [2]: 3.6e+06 M⁻¹ s⁻¹; Km [3]: 17 ± 2 µM; kcat [3]: 168 ± 8 s⁻¹; kcat/Km [3]: 9.8e+06 M⁻¹ s⁻¹
CC(C)(O/N=C(\C(=O)N[C@@H]1C(=O)N2C(C(=O)[O-])=C(C[n+]3ccccc3)CS[C@H]12)c1csc(N)n1)C(=O)O [ceftazidime]	1 (≈ 1.83 µM)	0.06 (≈ 0.11 µM)	128 (≈ 234 µM)	16 (≈ 29.3 µM)	64 (≈ 117 µM)	1 (≈ 1.83 µM)	128 (≈ 234 µM)	16 to 128 (≈ 29.3 to 234 µM)	64 (≈ 117 µM)	MIC ([4]; MHA + 5 μM EDTA): ≤ 1 µg/mL; MIC ([4]; MHA + 250 μM Zn^2+): ≤ 1 µg/mL; MIC (E. coli pBC SK(−); MHA + 5 μM EDTA): ≤ 1 µg/mL; MIC (E. coli pBC SK(−); MHA + 250 μM Zn^2+): ≤ 1 µg/mL; rate of hydrolysis (initial velocity) in periplasm (VIM-2 [5]): measurable rates of hydrolysis were not obtained; MIC ([6]; MHA + 5 μM EDTA): 128 µg/mL; MIC ([6]; MHA + 250 μM Zn^2+): 512 µg/mL; MIC ([7]; MHA + 5 μM EDTA): 16 µg/mL; MIC ([7]; MHA + 250 μM Zn^2+): 32 µg/mL; MIC ([8]; MHA + 5 μM EDTA): 32 µg/mL; MIC ([8]; MHA + 250 μM Zn^2+): 128 µg/mL; MIC ([9]; MHA + 5 μM EDTA): ≤ 1 µg/mL; MIC ([9]; MHA + 250 μM Zn^2+): 4 µg/mL; MIC ([10]; MHA + 5 μM EDTA): 64 µg/mL; MIC ([10]; MHA + 250 μM Zn^2+): 256 µg/mL; MIC ([12]; MHA + 5 μM EDTA): 64 µg/mL; MIC ([12]; MHA + 250 μM Zn^2+): 128 µg/mL; kcat/KM increase of VIM-24 compared to VIM-2 (VIM-24 [13]): 6 fold; rate of hydrolysis (initial velocity) in periplasm (VIM-24 [14]): 4e-07 M/s
O=C(O)[C@H]1CS[C@@H]2CS[C@@H](CS)N12 [D-CS319]	–	–	–	–	–	–	–	–	–	Ki (VIM-24 [15]; [17]): 640 ± 10 nM; k−2 (VIM-24 [15]; rate constant for breakdown of E*I): (0.004 ± 1) × 10^−3 s^−1; k2 (VIM-24 [15]; [18]): (0.07 ± 4) × 10^−3 s^−1; Ki (VIM-2 [16]; [17]): 180 ± 20 nM; k2 (VIM-2 [16]; [18]): (0.01 ± 1) × 10^−3 s^−1
C[C@H]1[C@H](NC(=O)/C(=N\OC(C)(C)C(=O)O)c2csc(N)n2)C(=O)N1S(=O)(=O)O [aztreonam]	≤ 0.125	≤ 0.125	≤ 0.125	≤ 0.125	≤ 0.125	≤ 0.125	≤ 0.125	≤ 0.125	≤ 0.125	–
CC1(C)S[C@@H]2[C@H](NC(=O)[C@H](N)c3ccccc3)C(=O)N2[C@H]1C(=O)O [ampicillin]	32 (≈ 91.6 µM)	4 (≈ 11.4 µM)	1020 (≈ 2930 µM)	512 (≈ 1470 µM)	512 (≈ 1470 µM)	32 (≈ 91.6 µM)	1020 (≈ 2930 µM)	64 to 512 (≈ 183 to 1470 µM)	1020 (≈ 2930 µM)	–
CO/N=C(\C(=O)N[C@@H]1C(=O)N2C(C(=O)O)=C(COC(C)=O)CS[C@H]12)c1csc(N)n1 [cefotaxime]	1 (≈ 2.2 µM)	0.06 (≈ 0.132 µM)	32 (≈ 70.3 µM)	8 (≈ 17.6 µM)	16 (≈ 35.1 µM)	1 (≈ 2.2 µM)	16 (≈ 35.1 µM)	2 to 32 (≈ 4.39 to 70.3 µM)	16 (≈ 35.1 µM)	–
